Data from patent US12290500B2, “Anaplerotic agents for treatment of disorders of propionate and long chain fat metabolism” (University of Pittsburgh—Of the Commonwealth System of …, priority 2016, dated 2025).

Tested on: PCC deficient cells
Protocol: Control cells and PCC cells obtained from patients with PA and generated through CRISPR/CAS9 technology are grown in media with and without succinate supplementation and the metabolite profile of cell extracts is determined by metabolomic techniques. First, PCC deficient cells are grown in T-25 flasks in standard DMEM medium with and without supplemental succinate (0.1-2 mmol/L). Cells are harvested, lysed by sonication and intracellular concentrations of TCA cycle intermediates are measured by liquid chromatography-mass spectrometry (LC-MS)/MS. Next, flux through the TCA cycle is measured by incorporation of radiolabel from uniformly labeled ^14C-palmitate into TCA cycle intermediates after incubation with PPC deficient and control cells. PCC deficient cell lines are grown in DMEM complete media and transferred to 6-well plates at a seeding density of ˜200,000 cells/well. The media in the wells is changed after 24 hours to DMEM media containing 5% dialyzed fetal bovine serum (FBS). After approximately one hour, the first time point (180 minutes) receives DMEM 5% dialyzed FBS containing universally labeled palmitate with ^13C […]. The cells are incubated at 37° C., 4% CO2 for the following time points: 180 minutes, 60 minutes, 30 minutes, 10 minutes and 0 minutes. The 0 minute time point receives no isotopic labeling.

O=C(O)CCC(=O)O [succinate]
decreased level of TCA cycle intermediates (cell lines from patients with PA or MMA, succinate supplementation 0.1-2 mmol/L): expected to be reversed | impaired incorporation of label from palmitate through the TCA cycle into protein (succinate supplementation): expected to be reversed
